Key:
[1] = test system: HCC4017 lung cancer cells; assay: cell cycle analysis (PI, FACS); assay type: cell-based, human; settings: for effect on cell cycle distribution: HCC4017, FACs analysis; for subG0 population: HCC4017, even after 64h
Description: For cell cycle analysis, cells were washed with PBS, fixed in 70% ethanol for 2 h, washed with PBS and resuspended in staining solution (0.1% Triton X-100, 0.2 mg/ml DNAse-free RNAse A and […]) and incubated at 37C for 15 min. Histograms were acquired on a BD FACSCalibur flow cytometer at UT Southwestern’s core facility. Apoptosis was measured using a FITC Annexin V Apoptosis Detection Kit I (BD Pharmingen) according to manufacturer’s protocol after treating cells with compounds as indicated in Figure legends.

KM12 = assay: NCI 60 screen, five dose; assay type: cell-based; settings: Homo sapiens, Colon Cancer, GI50 = molar concentration, read-out: Log10 GI50 (converted)
TK-10 = assay: NCI 60 screen, five dose; assay type: cell-based; settings: Homo sapiens, Renal Cancer, GI50 = molar concentration, read-out: Log10 GI50 (converted)
NCI-H226 = assay: NCI 60 screen, five dose; assay type: cell-based; settings: Homo sapiens, Non-Small Cell Lung Cancer, GI50 = molar concentration, read-out: Log10 GI50 (converted)
DU-145 = assay: NCI 60 screen, five dose; assay type: cell-based; settings: Homo sapiens, Prostate Cancer, GI50 = molar concentration, read-out: Log10 GI50 (converted)
A498 = assay: NCI 60 screen, five dose; assay type: cell-based; settings: Homo sapiens, Renal Cancer, GI50 = molar concentration, read-out: Log10 GI50 (converted)
NCI-H522 = assay: NCI 60 screen, five dose; assay type: cell-based; settings: Homo sapiens, Non-Small Cell Lung Cancer, GI50 = molar concentration, read-out: Log10 GI50 (converted)
HCT-15 = assay: NCI 60 screen, five dose; assay type: cell-based; settings: Homo sapiens, Colon Cancer, GI50 = molar concentration, read-out: Log10 GI50 (converted)
UO-31 = assay: NCI 60 screen, five dose; assay type: cell-based; settings: Homo sapiens, Renal Cancer, GI50 = molar concentration, read-out: Log10 GI50 (converted)
HCC-2998 = assay: NCI 60 screen, five dose; assay type: cell-based; settings: Homo sapiens, Colon Cancer, GI50 = molar concentration, read-out: Log10 GI50 (converted)
HOP-92 = assay: NCI 60 screen, five dose; assay type: cell-based; settings: Homo sapiens, Non-Small Cell Lung Cancer, GI50 = molar concentration, read-out: Log10 GI50 (converted)
OVCAR-3 = assay: NCI 60 screen, five dose; assay type: cell-based; settings: Homo sapiens, Ovarian Cancer, GI50 = molar concentration, read-out: Log10 GI50 (converted)
MALME-3M = assay: NCI 60 screen, five dose; assay type: cell-based; settings: Homo sapiens, Melanoma, GI50 = molar concentration, read-out: Log10 GI50 (converted)
LOX IMVI = assay: NCI 60 screen, five dose; assay type: cell-based; settings: Homo sapiens, Melanoma, GI50 = molar concentration, read-out: Log10 GI50 (converted)
SW-620 = assay: NCI 60 screen, five dose; assay type: cell-based; settings: Homo sapiens, Colon Cancer, GI50 = molar concentration, read-out: Log10 GI50 (converted)
COLO 205 = assay: NCI 60 screen, five dose; assay type: cell-based; settings: Homo sapiens, Colon Cancer, GI50 = molar concentration, read-out: Log10 GI50 (converted)
SR = assay: NCI 60 screen, five dose; assay type: cell-based; settings: Homo sapiens, Leukemia, GI50 = molar concentration, read-out: Log10 GI50 (converted)
SNB-75 = assay: NCI 60 screen, five dose; assay type: cell-based; settings: Homo sapiens, CNS Cancer, GI50 = molar concentration, read-out: Log10 GI50 (converted)
HCT-116 = assay: NCI 60 screen, five dose; assay type: cell-based; settings: Homo sapiens, Colon Cancer, GI50 = molar concentration, read-out: Log10 GI50 (converted)
PC-3 = assay: NCI 60 screen, five dose; assay type: cell-based; settings: Homo sapiens, Prostate Cancer, GI50 = molar concentration, read-out: Log10 GI50 (converted)
Colon cancer cell lines = assay: NCI 60 screen, five dose; assay type: cell-based, human; settings: for GI50: Homo sapiens; for no. cell lines used for the assay/no inhibited by compound: figures in parenthesis
M14 = assay: NCI 60 screen, five dose; assay type: cell-based; settings: Homo sapiens, Melanoma, GI50 = molar concentration, read-out: Log10 GI50 (converted)
A549/ATCC = assay: NCI 60 screen, five dose; assay type: cell-based; settings: Homo sapiens, Non-Small Cell Lung Cancer, GI50 = molar concentration, read-out: Log10 GI50 (converted)
SN12C = assay: NCI 60 screen, five dose; assay type: cell-based; settings: Homo sapiens, Renal Cancer, GI50 = molar concentration, read-out: Log10 GI50 (converted)
HL-60(TB) = assay: NCI 60 screen, five dose; assay type: cell-based; settings: Homo sapiens, Leukemia, GI50 = molar concentration, read-out: Log10 GI50 (converted)
T-47D = assay: NCI 60 screen, five dose; assay type: cell-based; settings: Homo sapiens, T47D, Breast Cancer, GI50 = molar concentration, read-out: Log10 GI50 (converted)
MDA-MB-231/ATCC = assay: NCI 60 screen, five dose; assay type: cell-based; settings: Homo sapiens, Breast Cancer, GI50 = molar concentration, read-out: Log10 GI50 (converted)
SK-OV-3 = assay: NCI 60 screen, five dose; assay type: cell-based; settings: Homo sapiens, Ovarian Cancer, GI50 = molar concentration, read-out: Log10 GI50 (converted)
NCI-H23 = assay: NCI 60 screen, five dose; assay type: cell-based; settings: Homo sapiens, Non-Small Cell Lung Cancer, GI50 = molar concentration, read-out: Log10 GI50 (converted)
[2] = test system: Ovarian cancer cell lines; assay: NCI 60 screen, five dose; assay type: cell-based, human; settings: for GI50: Homo sapiens; for no. cell lines used for the assay/no inhibited by compound: figures in parenthesis
ACHN = assay: NCI 60 screen, five dose; assay type: cell-based; settings: Homo sapiens, Renal Cancer, GI50 = molar concentration, read-out: Log10 GI50 (converted)
HOP-62 = assay: NCI 60 screen, five dose; assay type: cell-based; settings: Homo sapiens, Non-Small Cell Lung Cancer, GI50 = molar concentration, read-out: Log10 GI50 (converted)
RPMI-8226 = assay: NCI 60 screen, five dose; assay type: cell-based; settings: Homo sapiens, Leukemia, GI50 = molar concentration, read-out: Log10 GI50 (converted)
HS 578T = assay: NCI 60 screen, five dose; assay type: cell-based; settings: Homo sapiens, Breast Cancer, GI50 = molar concentration, read-out: Log10 GI50 (converted)
NCI/ADR-RES = assay: NCI 60 screen, five dose; assay type: cell-based; settings: Homo sapiens, Ovarian Cancer, GI50 = molar concentration, read-out: Log10 GI50 (converted)
SK-MEL-5 = assay: NCI 60 screen, five dose; assay type: cell-based; settings: Homo sapiens, Melanoma, GI50 = molar concentration, read-out: Log10 GI50 (converted)
UACC-257 = assay: NCI 60 screen, five dose; assay type: cell-based; settings: Homo sapiens, Melanoma, GI50 = molar concentration, read-out: Log10 GI50 (converted)
UACC-62 = assay: NCI 60 screen, five dose; assay type: cell-based; settings: Homo sapiens, Melanoma, GI50 = molar concentration, read-out: Log10 GI50 (converted)
HT29 = assay: NCI 60 screen, five dose; assay type: cell-based; settings: Homo sapiens, HT-29, Colon Cancer, GI50 = molar concentration, read-out: Log10 GI50 (converted)
U251 = assay: NCI 60 screen, five dose; assay type: cell-based; settings: Homo sapiens, U-251, CNS Cancer, GI50 = molar concentration, read-out: Log10 GI50 (converted)
SK-MEL-2 = assay: NCI 60 screen, five dose; assay type: cell-based; settings: Homo sapiens, Melanoma, GI50 = molar concentration, read-out: Log10 GI50 (converted)
NCI-H322M = assay: NCI 60 screen, five dose; assay type: cell-based; settings: Homo sapiens, Non-Small Cell Lung Cancer, GI50 = molar concentration, read-out: Log10 GI50 (converted)
K-562 = assay: NCI 60 screen, five dose; assay type: cell-based; settings: Homo sapiens, K562, Leukemia, GI50 = molar concentration, read-out: Log10 GI50 (converted)

SMILES: Cn1c(N2CCN(S(=O)(=O)c3ccc(C(=O)NO)cc3)CC2)nc2ccccc21 [Compound 9b, 4-[4-(1-methylbenzimidazol-2-yl)piperazin-1-yl]sulfonylbenzenecarbohydroxamic acid]
- effect on cell cycle distribution [1]: affect cell cycle distribution after just 18h of treatment
- subG0 population [1]: no subG0 population was observed

SMILES: O=C(NO)c1ccc(S(=O)(=O)N2CCN(c3nc4ccccc4s3)CC2)cc1 [Compound 9d, 4-(4-Benzothiazol-2-yl-piperazin-1-sulfonyl)-N -hydroxy-benzamid]
- GI50 (KM12): 2.14 µM
- GI50 (TK-10): 3.63 µM
- GI50 (NCI-H226): 10 µM
- GI50 (DU-145): 3.02 µM
- GI50 (A498): 1.82 µM
- GI50 (NCI-H522): 2.29 µM
- GI50 (HCT-15): 3.98 µM
- GI50 (UO-31): 4.37 µM
- GI50 (HCC-2998): 2.14 µM
- GI50 (HOP-92): 2.57 µM
- GI50 (OVCAR-3): 3.02 µM
- GI50 (MALME-3M): 2.57 µM
- GI50 (LOX IMVI): 2.51 µM
- GI50 (SW-620): 1.66 µM
- GI50 (COLO 205): 3.02 µM
- GI50 (SR): 1.12 µM
- GI50 (SNB-75): 1.74 µM
- GI50 (HCT-116): 1.7 µM
- GI50 (PC-3): 2.04 µM
- GI50 (Colon cancer cell lines): 2.3 µM
- no. cell lines used for the assay/no inhibited by compound (Colon cancer cell lines): 6/7
- GI50 (M14): 1.62 µM
- GI50 (A549/ATCC): 3.63 µM
- GI50 (SN12C): 10.5 µM
- GI50 (HL-60(TB)): 2.57 µM
- GI50 (T-47D): 3.89 µM
- GI50 (MDA-MB-231/ATCC): 5.01 µM
- GI50 (SK-OV-3): 7.76 µM
- GI50 (NCI-H23): 1.55 µM
- GI50 [2]: 4.01 µM
- no. cell lines used for the assay/no inhibited by compound [2]: 3/3
- GI50 (ACHN): 4.57 µM
- GI50 (HOP-62): 3.8 µM
- GI50 (RPMI-8226): 1.38 µM
- GI50 (HS 578T): 1.45 µM
- GI50 (NCI/ADR-RES): 6.61 µM
- GI50 (SK-MEL-5): 3.98 µM
- GI50 (UACC-257): 3.55 µM
- GI50 (UACC-62): 1.7 µM
- GI50 (HT29): 5.62 µM
- GI50 (U251): 2.75 µM
- GI50 (SK-MEL-2): 6.31 µM
- GI50 (NCI-H322M): 5.62 µM

SMILES: O=C(NO)c1ccc(S(=O)(=O)N2CCN(c3nc4ccccc4o3)CC2)cc1 [Compound 9c, 4-(4-Benzoxazol-2-yl-piperazin-1-sulfonyl)-N -hydroxy-benzamid]
- GI50 (KM12): 5.13 µM
- GI50 (TK-10): 7.94 µM
- GI50 (NCI-H226): 20.9 µM
- GI50 (DU-145): 7.41 µM
- GI50 (A498): 2.82 µM
- GI50 (NCI-H522): 6.03 µM
- GI50 (HCT-15): 18.2 µM
- GI50 (UO-31): 10.7 µM
- GI50 (HCC-2998): 17.4 µM
- GI50 (HOP-92): 6.03 µM
- GI50 (MALME-3M): 1.38 µM
- GI50 (LOX IMVI): 10.7 µM
- GI50 (SW-620): 4.37 µM
- GI50 (COLO 205): 1.7 µM
- GI50 (SNB-75): 4.37 µM
- GI50 (HCT-116): 4.07 µM
- GI50 (PC-3): 3.24 µM
- GI50 (Colon cancer cell lines): 6.05 µM
- no. cell lines used for the assay/no inhibited by compound (Colon cancer cell lines): 4/6
- GI50 (M14): 5.89 µM
- GI50 (A549/ATCC): 13.5 µM
- GI50 (SN12C): 11.7 µM
- effect on cell cycle distribution [1]: affect cell cycle distribution after just 18h of treatment
- subG0 population [1]: no subG0 population was observed
- GI50 (HL-60(TB)): 5.89 µM
- GI50 (T-47D): 5.75 µM
- GI50 (MDA-MB-231/ATCC): 13.2 µM
- GI50 (SK-OV-3): 14.8 µM
- GI50 (NCI-H23): 3.72 µM
- GI50 [2]: 7.66 µM
- no. cell lines used for the assay/no inhibited by compound [2]: 2/5
- GI50 (ACHN): 21.4 µM
- GI50 (HOP-62): 12 µM
- GI50 (K-562): 6.31 µM
- GI50 (RPMI-8226): 0.38 µM
- GI50 (NCI/ADR-RES): 21.9 µM
- GI50 (SK-MEL-5): 5.62 µM
- GI50 (UACC-257): 6.46 µM
- GI50 (UACC-62): 4.27 µM
- GI50 (U251): 6.46 µM
- GI50 (SK-MEL-2): 16.2 µM
- GI50 (NCI-H322M): 14.5 µM
